Literature values, collected in patent publication EP0839024B1, “MONENSIN FORMULATIONS” (Elli Lilly & Co.(NZ)Limited, priority 1995, dated 1997).

Columns and labels:
[1] = as indicated in EP 0,139,595 (monensin and its sodium salt) and US Patent 3,715,372 (lasalocid); cited from earlier work
[2] = Example 1 of EP 0,139,595: 250 g mycelium containing 10% monensin, 1250 cc propylene glycol, room temperature, 2 hours, ultrasound; cited from earlier work

Row | Compound | solubility in water [1] | monensin found in solution in propylene glycol [2]
1 | CC[C@@H](C(=O)[C@@H](C)[C@@H](O)[C@H](C)CCc1ccc(C)c(O)c1C(=O)O)[C@H]1O[C@](CC)([C@H]2CC[C@](O)(CC)[C@H](C)O2)C[C@@H]1C [lasalocid] | completely insoluble | 
2 | CC[C@@]1([C@@H]2O[C@@H]([C@H]3O[C@@](O)(CO)[C@H](C)C[C@@H]3C)C[C@@H]2C)CC[C@H]([C@]2(C)CC[C@]3(C[C@H](O)[C@@H](C)[C@@H]([C@@H](C)[C@@H](OC)[C@H](C)C(=O)O)O3)O2)O1 [monensin] |  | 50%
